Results published in patent US20250213701A1, “MEDICAMENT FOR TREATING HUMAN TUMOR BASED ON ERF3A-TARGETING PROTEOLYSIS MECHANISM” (SUZHOU DEGEN BIO-MEDICAL CO., LTD., priority 2022, published 2025).

Experiments:
AR = assay: Western blot assay in 22Rv1 cells: AR; format: cell-based, human; details: different concentrations at 24 h, and 3 nM at different time points (FIGS. 7 and 8)
Source text: Example 84: Western Blot Assay of Compound C59 in 22Rv1, PC-3, and HepG2 Cells
(1) Materials: 22Rv1, PC-3, and HepG2 cell, anti-SRD5A1 antibody (ab167606), anti-SRD5A2 antibody (ab124877), anti-SRD5A3 antibody (PA5-107029), anti-androgen receptor (AR) antibody (CST, No. 5153), anti-GSPT1 antibody (Abcam, ab234433), anti-GADPH antibody (CST, No. 5174), anti-c-Myc antibody (CST, No. 8583), anti-α-tublin antibody (CST, No. 2125), anti-rabbit IgG, HRP-linked antibody (CST, No. 7074), electrophoresis device and membrane transfer device (LIUYI, BEIJING; DYCZ-24DN)
Cell seeding: 22Rv1 (Cell Bank of the Chinese Academy of Sciences, TCHu100), PC-3 (Cell Bank of the Chinese Academy of Sciences, SCSP-532) and HepG2 cells (Cell Bank of the Chinese Academy of Sciences, TCHu72) were subcultured and trypsinized to prepare 6×10^5 cells/mL suspensions, seeded on 6-well plates (3 mL/well), and cultured overnight in a cell incubator at 5% CO2 and 37° C. […]
Protein quantification: The protein was quantified using a BCA protein quantification kit. […]
Western immunoblot assay (or Western blot, WB): SDS-PAGE gel at a proper concentration was prepared according to the molecular weight of the target protein: for example, the concentration of the separation gel was 8% and the concentration of the stacking gel was 5%. The loading volume was adjusted according to the protein quantification results. […]

HuH-7 cells = assay: Anti-proliferative toxicity of C63 in tumor cell lines (CCK8): HuH-7; format: cell-based; details: Homo sapiens, 72 h, 3 days, read-out: Inhibition rate
Procedure: (§1) Example 83: Detection of Anti-Proliferative Toxicity of C63 in Some Tumor Cell Lines
HuH-7 cells (purchased from the Cell Bank of the Chinese Academy of Sciences, Cat. No. SCSP-526) were subcultured in a culture medium (DMEM medium+[…] penicillin-streptomycin dual-antibiotic solution+10% fetal bovine serum) in an incubator at […] and 37° C.
HuH-7 cells were seeded at 5000 cells/well (90 μL) on a 96-well plate and cultured for 24 h.
(§2) 10 mM compound stock solutions were prepared in DMSO.
(§3) The compound stock solution was diluted with DMSO to give DMSO solutions 1-9 at concentrations of 0 μM, 2500 μM, 500 μM, 100 μM, 20 μM, 4 μM, 0.8 μM, 0.16 μM, and 0.032 μM.
(§4) 2 μL of each of solutions 1-9 was added to 98 μL of the medium to give mixed solutions 11-19 of the compound and the medium.
(§5) 10 μL of each of solutions 11-19 was added to the above cell seed solution to give a total volume of 100 μL (90 μL+10 μL).
(§6) The concentrations of the compound in the wells were 0 μM, 5.0 μM, 1.0 μM, 0.2 μM, 0.04 μM, 0.008 μM, 0.0016 μM, 0.00032 μM, and 0.000064 μM. All concentrations were in triplicate.
(§7) After the above-treated cells were cultured for 3 days, 10 μL of the CCK8 solution (DOJINDO, Cat. No. PF725) was added to each well. The plate was incubated in an incubator at 37° C. for 1-4 h and then detected on a microplate reader for the reading at 450 nm.

PANC-1 cells = assay: Anti-proliferative toxicity of C63 in tumor cell lines (CCK8): PANC-1; format: cell-based; details: Homo sapiens, 72 h, 3 days, read-out: Inhibition rate
Procedure: as §1
PANC-1 cells (purchased from the Cell Bank of the Chinese Academy of Sciences, Cat. No. SCSP-535) were subcultured in a culture medium (DMEM medium+1% penicillin-streptomycin dual-antibiotic solution+10% fetal bovine serum) in an incubator at 5% carbon dioxide and 37° C.
PANC-1 cells were seeded at 5000 cells/well (90 μL) on a 96-well plate and cultured for 24 h.
as §2, §3, §4, §5, §6, §7

BT-549 cells = assay: Anti-proliferative toxicity of C63 in tumor cell lines (CCK8): BT-549; format: cell-based; details: Homo sapiens, 72 h, 3 days, read-out: Inhibition rate
Procedure: as §1
BT-549 cells (purchased from the Cell Bank of the Chinese Academy of Sciences, Cat. No. TCHu93) were subcultured in a culture medium (RPMI-1640 medium+1% penicillin-streptomycin dual-antibiotic solution++10% fetal bovine serum+0.01 mg/mL recombinant human insulin) in an incubator at 5% carbon dioxide and 37° C.
BT-549 cells were seeded at 5000 cells/well (90 μL) on a 96-well plate and cultured for 24 h.
as §2, §3, §4, §5, §6, §7

C[C@]12C=CC(=O)N[C@@H]1CC[C@@H]1[C@@H]2CC[C@]2(C)[C@@H](C(=O)Nc3cccc(N[C@@H]4CCC[C@@H](Nc5cccc6c5C(=O)N(C5CCC(=O)NC5=O)C6=O)C4)c3)CC[C@@H]12 (stereo partly drawn) [C59, N-(3-(N—(N-(4-(2-(3-(2,6-dioxopiperidine))-isoindole-1,3-dione))-1R,3R-cyclohexanediamine))phenyl)-3-oxo-4-aza-5α-androst-1-ene-17β-carboxamide]
downregulation of AR protein (Western blot) (AR): downregulation

C[C@]12C=CC(=O)N[C@@H]1CC[C@@H]1[C@@H]2CC[C@]2(C)[C@@H](C(=O)Nc3cccc(N[C@@H]4CCC[C@@H](Nc5cccc6c5C(=O)N([C@H]5CCC(=O)NC5=O)C6=O)C4)c3)CC[C@@H]12 [C63, N-(3-(N—(N-(4-(2-(3S-(2,6-dioxopiperidine))-isoindole-1,3-dione))-1R,3R-cyclohexanediamine))phenyl)-3-oxo-4-aza-5α-androst-1-ene-17β-carboxamide]
inhibition at 64 pM (HuH-7 cells; 0.000064 μM): 13.1% | inhibition at 0.00032 µM (HuH-7 cells; 0.000320 μM): 59.9% | inhibition at 0.0016 µM (HuH-7 cells; 0.001600 μM): 77.1% | inhibition at 0.008 µM (HuH-7 cells; 0.008000 μM): 79.3% | inhibition at 0.04 µM (HuH-7 cells; 0.040000 μM): 78.3% | inhibition at 0.2 µM (HuH-7 cells; 0.200000 μM): 78.3% | inhibition at 1 µM (HuH-7 cells; 1.000000 μM): 75.1% | inhibition at 5 µM (HuH-7 cells; 5.000000 μM): 73.1% | inhibition at 64 pM (PANC-1 cells; 0.000064 μM): 21.2% | inhibition at 0.00032 µM (PANC-1 cells; 0.000320 μM): 12.8% | inhibition at 0.0016 µM (PANC-1 cells; 0.001600 μM): 25.3% | inhibition at 0.008 µM (PANC-1 cells; 0.008000 μM): 31.6% | inhibition at 0.04 µM (PANC-1 cells; 0.040000 μM): 36.3% | inhibition at 0.2 µM (PANC-1 cells; 0.200000 μM): 42.1% | inhibition at 1 µM (PANC-1 cells; 1.000000 μM): 48.7% | inhibition at 5 µM (PANC-1 cells; 5.000000 μM): 52.8% | inhibition at 64 pM (BT-549 cells; 0.000064 μM): 29.3% | inhibition at 0.00032 µM (BT-549 cells; 0.000320 μM): 28% | inhibition at 0.0016 µM (BT-549 cells; 0.001600 μM): 77.5% | inhibition at 0.008 µM (BT-549 cells; 0.008000 μM): 84.3% | inhibition at 0.04 µM (BT-549 cells; 0.040000 μM): 84.6% | inhibition at 0.2 µM (BT-549 cells; 0.200000 μM): 85.6% | inhibition at 1 µM (BT-549 cells; 1.000000 μM): 84.3% | inhibition at 5 µM (BT-549 cells; 5.000000 μM): 87.5%
